From ChEMBL document CHEMBL5104093, “A comprehensive review on β-lapachone: Mechanisms, structural modifications, and therapeutic potentials” (Eur J Med Chem, 2021)
Values after ≈ are worked out from the molar mass of the structure shown.

How the values were obtained:
HL-60 = test: Cytotoxicity against human HL-60 cells assessed as reduction in cell viability incubated for 72 hrs by MTT assay; type: functional, cell-based; conditions: HL-60, 72 h
Jurkat = test: Cytotoxicity against human Jurkat cells assessed as reduction in cell viability incubated for 72 hrs by MTT assay; type: functional, cell-based
MOLT-4 = test: Cytotoxicity against human MOLT-4 cells assessed as reduction in cell viability incubated for 72 hrs by MTT assay; type: functional, cell-based; conditions: MOLT-4, 72 h
K562 = test: Cytotoxicity against human K562 cells assessed as reduction in cell viability incubated for 72 hrs by MTT assay; type: functional, cell-based; conditions: K562, 72 h
Trypanosoma cruzi [1] = test: Antitrypanosomal activity against bloodstream form of Trypanosoma cruzi Y trypomastigotes infected in albino mouse assessed as reduction in viable parasite in blood by Neubauer counting chamber method; type: functional, organism-based
HEp-2 = test: Cytotoxicity against human HEp-2 cells assessed as reduction in cell viability incubated for 72 hrs by MTT assay; type: functional, cell-based; conditions: HEp-2, 72 h
MCF7 = test: Cytotoxicity against human MCF7 cells assessed as reduction in cell viability incubated for 72 hrs by MTT assay; type: functional, cell-based; conditions: MCF7, 72 h
NCI-H292 = test: Cytotoxicity against human NCI-H292 cells assessed as reduction in cell viability incubated for 72 hrs by MTT assay; type: functional, cell-based; conditions: NCI-H292, 72 h
Trypanosoma cruzi [2] = test: Antitrypanosomal activity against bloodstream form of Trypanosoma cruzi Y trypomastigotes infected in albino mouse assessed as reduction in viable parasite in blood incubated for 24 hrs by Neubauer counting chamber method; type: functional, organism-based
[3] = tested on: Mycobacterium tuberculosis; test: Antimycobacterial activity against Mycobacterium tuberculosis H37Rv ATCC 27294 assessed as bacterial growth inhibition incubated for 7 days by resazurin dye based microtiter assay; type: functional; conditions: ATCC 27294, 168 h, time 7 day
KB = test: Cytotoxicity against human KB cells assessed as reduction in cell viability incubated for 48 hrs by MTT assay; type: functional, cell-based
HepG2 = test: Cytotoxicity against human HepG2 cells assessed as reduction in cell viability incubated for 48 hrs by MTT assay; type: functional, cell-based; conditions: HepG2, 48 h
HeLa = test: Cytotoxicity against human HeLa cells assessed as reduction in cell viability incubated for 48 hrs by MTT assay; type: functional, cell-based
Trypanosoma cruzi [4] = test: Antitrypanosomal activity against bloodstream form of Trypanosoma cruzi Y trypomastigotes infected in Swiss Webster mouse assessed as reduction in viable parasite in blood incubated for 24 hrs by Neubauer counting chamber based light microscopic analysis; type: functional, organism-based
Trypanosoma cruzi [5] = test: Antitrypanosomal activity against bloodstream form of Trypanosoma cruzi trypomastigotes infected in Swiss mouse assessed as reduction in viable parasite in blood incubated for 24 hrs by Neubauer counting chamber method; type: functional, organism-based
MDA-MB-435 = test: Cytotoxicity against human MDA-MB-435 cells assessed as reduction in cell viability incubated for 72 hrs by MTT assay; type: functional, cell-based; conditions: MDA-MB-435, 72 h
SF-295 = test: Cytotoxicity against human SF-295 cells assessed as reduction in cell viability incubated for 72 hrs by MTT assay; type: functional, cell-based; conditions: SF-295, 72 h
PC-3 = test: Cytotoxicity against human PC-3 cells assessed as reduction in cell viability incubated for 72 hrs by MTT assay; type: functional, cell-based; conditions: PC-3, 72 h
B16 = test: Cytotoxicity against mouse B16 cells assessed as reduction in cell viability incubated for 72 hrs by MTT assay; type: functional, cell-based; conditions: B16, 72 h
HCT-8 = test: Cytotoxicity against human HCT-8 cells assessed as reduction in cell viability incubated for 72 hrs by MTT assay; type: functional, cell-based; conditions: HCT-8, 72 h
Staphylococcus aureus = test: Antibacterial activity against Staphylococcus aureus 2065 MA assessed as diameter of bacterial growth inhibition by Mueller-Hinton broth based assay; type: functional
[6] = Cytotoxicity against monkey LLC-MK2 cells assessed as reduction in cell viability incubated for 96 hrs by trypan blue assay; type: toxicity, cell-based, Macaca mulatta; conditions: rhesus monkey, read-out: LC50

SMILES: COc1ccc(-c2cn(C3C4=C(OC3(C)C)c3ccccc3C(=O)C4=O)nn2)cc1 (centres undefined)
- IC50 (HL-60): 0.94 µM
- IC50 (Jurkat): 0.94 µM
- IC50 (MOLT-4): 0.94 µM
- IC50 (K562): 0.94 µM

SMILES: O=C1C(=O)c2ccccc2C2=C1CC(Cn1cc(COC3CCCCO3)nn1)O2 (centres undefined)
- IC50 (Trypanosoma cruzi [1]): 52.9 µM

SMILES: CC(=O)OCC1CC2=C(OC1(C)C)c1ccccc1C(=O)C2=O (centres undefined)
- IC50 (HEp-2): 2.26 µM
- IC50 (MCF7): 2.73 µM
- IC50 (NCI-H292): 2.26 µM

SMILES: COc1ccc(-c2nc3c(o2)c2c(c4ccccc43)OC(C)(C)CC2)cc1
- IC50 (Trypanosoma cruzi [2]): 3500 µM

SMILES: CC1(C)OC2=C(C(=O)C(=O)c3ccccc32)[C@H](n2cc(-c3ccccc3)nn2)[C@H]1Br
- MIC [3]: < 6.25 µg/mL

SMILES: CC1(C)CC2=C(O1)c1ccccc1C(=O)C2=O [NOR-BETA-LAPACHONE]
- IC50 (Jurkat): 1.34 µM

SMILES: CC1COC2=C(C1)C(=O)C(=O)c1ccccc12 (centres undefined)
- IC50 (KB): 0.92 µM
- IC50 (HepG2): 0.92 µM
- IC50 (HeLa): 0.92 µM

SMILES: CC1(C)OC2=C(CC1[Se]c1ccccc1)C(=O)C(=O)c1ccccc12 (centres undefined)
- IC50 (Trypanosoma cruzi [4]): 103 µM

SMILES: CC1(C)OC2=C(C(=O)C(=O)c3ccccc32)C1n1cc(-c2ccc(F)cc2)nn1 (centres undefined)
- IC50 (HL-60): 1.33 µM
- IC50 (Jurkat): 1.33 µM
- IC50 (MOLT-4): 1.33 µM
- IC50 (K562): 1.33 µM

SMILES: CCCC[Se]C1CC2=C(OC1(C)C)c1ccccc1C(=O)C2=O (centres undefined)
- IC50 (Trypanosoma cruzi [4]): 109 µM

SMILES: CCOC(=O)C1=C2C3=C(OC(C)(C)CC3)c3ccccc3C2(O)CC1=O (centres undefined)
- IC50 (Trypanosoma cruzi [2]): 56.1 µM

SMILES: CC1(C)CCc2c(c3ccccc3c3nc(-c4ccc(F)cc4)[nH]c23)O1
- IC50 (Trypanosoma cruzi [5]): 37.5 µM

SMILES: CC1(C)CCc2c(c3ccccc3c3nc(-c4ccc5c(c4)OCO5)oc23)O1
- IC50 (Trypanosoma cruzi [2]): 270 µM

SMILES: CC(C)(O)c1cn(C2C3=C(OC2(C)C)c2ccccc2C(=O)C3=O)nn1 (centres undefined)
- IC50 (MDA-MB-435): 2.8 µM
- IC50 (SF-295): 2.8 µM
- IC50 (HL-60): 2.8 µM
- IC50 (PC-3): 2.8 µM
- IC50 (B16): 2.8 µM
- IC50 (HCT-8): 2.8 µM

SMILES: O=C1C(=O)c2ccccc2C2=C1CCCO2
- IC50 (HepG2): 0.92 µM

SMILES: CC1(C)OC2=C(C(=O)C(=O)c3ccccc32)C1S(=O)(=O)C1CCCCC1 (centres undefined)
- zone diameter (Staphylococcus aureus): 8 mm

SMILES: CC1(C)OC2=C(CC1CO)C(=O)C(=O)c1ccccc12 (centres undefined)
- IC50 (HEp-2): 5.51 µM
- IC50 (MCF7): 5.51 µM
- IC50 (NCI-H292): 5.51 µM

SMILES: CC(=O)OCC1C2=C(OC1(C)C)c1ccccc1C(=O)C2=O (centres undefined)
- IC50 (HEp-2): 0.6 µM
- IC50 (NCI-H292): 0.6 µM

SMILES: CC1(C)OC2=C(C(=O)C(=O)c3ccccc32)C1n1cc(C2=CCCCC2)nn1 (centres undefined)
- IC50 (MDA-MB-435): < 1.25 µM
- IC50 (SF-295): < 1.25 µM
- IC50 (HL-60): < 5 µM
- IC50 (PC-3): < 1.25 µM
- IC50 (B16): < 1.25 µM
- IC50 (HCT-8): < 1.25 µM

SMILES: CCCCCCCCC1CC2=C(O1)c1ccccc1C(=O)C2=O (centres undefined)
- IC50 (Trypanosoma cruzi [1]): 86.7 µM
- CC50 at 96 h [6]: 2200 µM

SMILES: CC1(C)OC2=C(C(=O)C(=O)c3ccccc32)C1n1cc(CO)nn1 (centres undefined)
- IC50 (MDA-MB-435): 3.38 µM
- IC50 (SF-295): 3.38 µM
- IC50 (HL-60): 3.38 µM
- IC50 (PC-3): 3.38 µM
- IC50 (B16): 3.38 µM
- IC50 (HCT-8): 3.38 µM

SMILES: CC1(C)OC2=C(C(=O)C(=O)c3ccccc32)C1Sc1c(F)c(F)c(F)c(F)c1F (centres undefined)
- zone diameter (Staphylococcus aureus): 10 mm

SMILES: CC1CCC2C(C1)c1c(c3ccccc3c3nc4ccccc4nc13)OC2(C)C (centres undefined)
- MIC [3]: < 6.25 µg/mL

SMILES: CC1(C)COC2=C(C1)C(=O)C(=O)c1ccccc12 [RHINACANTHONE]
- IC50 (KB): 6.9 µM
- IC50 (HepG2): 6.9 µM
- IC50 (HeLa): 6.9 µM

SMILES: COc1ccccc1-c1nc2c([nH]1)c1c(c3ccccc32)OC(C)(C)CC1
- MIC [3]: 1.56 µg/mL (≈ 4.35 µM)

SMILES: CC1(C)CCc2c(c3ccccc3c3nc(-c4ccccc4)[nH]c23)O1
- IC50 (Trypanosoma cruzi [5]): 37.5 µM

SMILES: CC1(C)Oc2c(c3nc4ccccc4nc3c3ccccc23)C1N=[N+]=[N-] (centres undefined)
- MIC [3]: 25 µg/mL (≈ 73.2 µM)

SMILES: O=C1C(=O)c2ccccc2C2=C1CC(O)CO2 (centres undefined)
- IC50 (KB): 7.61 µM
- IC50 (HepG2): 7.61 µM
- IC50 (HeLa): 7.61 µM

SMILES: CC1(C)CCc2c(c3ccccc3c3nc(-c4cccc(C(F)(F)F)c4)[nH]c23)O1
- MIC [3]: 1.56 µg/mL (≈ 3.94 µM)

SMILES: CC1(C)Oc2c(c3nc4ccccc4nc3c3ccccc23)C=C1Br
- MIC [3]: < 6.25 µg/mL

SMILES: CC1(C)CCc2c(c3ccccc3c3nc(-c4ccccc4Cl)[nH]c23)O1
- IC50 (Trypanosoma cruzi [5]): 37.5 µM
